# Measurements as given in patent US9738634B2, “Heterocyclic amide compound and herbicide” (SYNGENTA PARTICIPATIONS AG, priority 2013, dated 2017).
# Key:
# Type in all cases: in vivo
# wheat [1] = assay: Test Example 3: soil treatment, effect on crop; e: wheat; details: treatment dosage 315 g/ha
# Method in brief: (§1)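 Crop and weed responses were judged three weeks after a uniform surface spray of the water-diluted emulsion at the given g/ha rate. Seeds sat beneath about 1.5 cm of sterilized diluvial soil, and boxes stood in a greenhouse at 25 to 30° C.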
# redroot pigweed [2] = assay: Test Example 3: weedkilling efficacy through soil treatment; L: redroot pigweed; details: treatment dosage 315 g/ha
# Method in brief: as §1
# transplanted rice = assay: Test Example 1: preemergent weed treatment in the submerged state, effect on crop; a: transplanted rice; details: treatment dosage 252 g/ha
# Method in brief: (§2)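 Pots of alluvial soil were flooded to a 4 cm depth. Mixed weed seeds were sown and 2.5 leaf-stage rice seedlings transplanted. On sowing day, water-diluted emulsion was applied to the water surface (dose in g/ha). After 3 weeks at 25–30 °C, effects were rated.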
# Italian ryegrass [3] = assay: Test Example 4: weedkilling efficacy by foliar treatment; I: Italian ryegrass; details: treatment dosage 315 g/ha
# Method in brief: (§3)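 Seeds are spot-sown into sterilized diluvial soil and covered with about 1.5 cm of soil. After 14 days' greenhouse growth at 25 to 30° C, plants are sprayed on stems and leaves with diluted emulsion at the stated g/ha rate, then scored at 3 weeks.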
# bulrush [4] = assay: Test Example 1: weedkilling efficacy, preemergent weed treatment in the submerged state; B: bulrush; details: treatment dosage 252 g/ha
# Method in brief: as §2
# directly sown rice [5] = assay: Test Example 4: foliar treatment, effect on crop; b: directly sown rice; details: treatment dosage 315 g/ha
# Method in brief: as §3
# catchweed [6] = assay: Test Example 3: weedkilling efficacy through soil treatment; O: catchweed; details: treatment dosage 315 g/ha
# Method in brief: as §1
# fig-leafed goosefoot [7] = assay: Test Example 3: weedkilling efficacy through soil treatment; M: fig-leafed goosefoot; details: treatment dosage 315 g/ha
# Method in brief: as §1
# barnyard grass [8] = assay: Test Example 2: weedkilling efficacy, growth period weed treatment in the submerged state; A: barnyard grass; details: treatment dosage 252 g/ha
# Method in brief: (§4)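 Weeds treated at the 1-2 leaf stage by application of diluted emulsion onto floodwater (4 cm depth, alluvial soil) at specified g/ha. Grown in greenhouse at 25 to 30° C; herbicidal effect rated three weeks after treatment.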
# corn [9] = assay: Test Example 4: foliar treatment, effect on crop; c: corn; details: treatment dosage 315 g/ha
# Method in brief: as §3
# beet [10] = assay: Test Example 3: soil treatment, effect on crop; f: beet; details: treatment dosage 315 g/ha
# Method in brief: as §1
# green foxtail [11] = assay: Test Example 4: weedkilling efficacy by foliar treatment; E: green foxtail; details: treatment dosage 315 g/ha
# Method in brief: as §3
# Indian mallow [12] = assay: Test Example 4: weedkilling efficacy by foliar treatment; K: Indian mallow; details: treatment dosage 315 g/ha
# Method in brief: as §3
# bulrush [13] = assay: Test Example 2: weedkilling efficacy, growth period weed treatment in the submerged state; B: bulrush; details: treatment dosage 252 g/ha
# Method in brief: as §4
# black-grass [14] = assay: Test Example 4: weedkilling efficacy by foliar treatment; H: black-grass; details: treatment dosage 315 g/ha
# Method in brief: as §3
# fig-leafed goosefoot [15] = assay: Test Example 4: weedkilling efficacy by foliar treatment; M: fig-leafed goosefoot; details: treatment dosage 315 g/ha
# Method in brief: as §3
# oval-leafed pondweed [16] = assay: Test Example 1: weedkilling efficacy, preemergent weed treatment in the submerged state; C: oval-leafed pondweed; details: treatment dosage 252 g/ha
# Method in brief: as §2
# green foxtail [17] = assay: Test Example 3: weedkilling efficacy through soil treatment; E: green foxtail; details: treatment dosage 315 g/ha
# Method in brief: as §1
# Italian ryegrass [18] = assay: Test Example 3: weedkilling efficacy through soil treatment; I: Italian ryegrass; details: treatment dosage 315 g/ha
# Method in brief: as §1
# oval-leafed pondweed [19] = assay: Test Example 2: weedkilling efficacy, growth period weed treatment in the submerged state; C: oval-leafed pondweed; details: treatment dosage 252 g/ha
# Method in brief: as §4
# birds-eye speedwell = assay: Test Example 4: weedkilling efficacy by foliar treatment; p: birds-eye speedwell; details: treatment dosage 315 g/ha
# Method in brief: as §3
# Indian mallow [20] = assay: Test Example 3: weedkilling efficacy through soil treatment; K: Indian mallow; details: treatment dosage 315 g/ha
# Method in brief: as §1
# chickweed [21] = assay: Test Example 4: weedkilling efficacy by foliar treatment; N: chickweed; details: treatment dosage 315 g/ha
# Method in brief: as §3
# catchweed [22] = assay: Test Example 4: weedkilling efficacy by foliar treatment; O: catchweed; details: treatment dosage 315 g/ha
# Method in brief: as §3
# beet [23] = assay: Test Example 4: foliar treatment, effect on crop; f: beet; details: treatment dosage 315 g/ha
# Method in brief: as §3
# wheat [24] = assay: Test Example 4: foliar treatment, effect on crop; e: wheat; details: treatment dosage 315 g/ha
# Method in brief: as §3
# soybean [25] = assay: Test Example 3: soil treatment, effect on crop; d: soybean; details: treatment dosage 315 g/ha
# Method in brief: as §1
# barnyard grass [26] = assay: Test Example 1: weedkilling efficacy, preemergent weed treatment in the submerged state; A: barnyard grass; details: treatment dosage 252 g/ha
# Method in brief: as §2
# chickweed [27] = assay: Test Example 3: weedkilling efficacy through soil treatment; N: chickweed; details: treatment dosage 315 g/ha
# Method in brief: as §1
# corn [28] = assay: Test Example 3: soil treatment, effect on crop; c: corn; details: treatment dosage 315 g/ha
# Method in brief: as §1
# directly sown rice [29] = assay: Test Example 3: soil treatment, effect on crop; b: directly sown rice; details: treatment dosage 315 g/ha
# Method in brief: as §1
# crabgrass [30] = assay: Test Example 4: weedkilling efficacy by foliar treatment; D: crabgrass; details: treatment dosage 315 g/ha
# Method in brief: as §3
# black-grass [31] = assay: Test Example 3: weedkilling efficacy through soil treatment; H: black-grass; details: treatment dosage 315 g/ha
# Method in brief: as §1
# wild oat [32] = assay: Test Example 4: weedkilling efficacy by foliar treatment; G: wild oat; details: treatment dosage 315 g/ha
# Method in brief: as §3
# soybean [33] = assay: Test Example 4: foliar treatment, effect on crop; d: soybean; details: treatment dosage 315 g/ha
# Method in brief: as §3
# redroot pigweed [34] = assay: Test Example 4: weedkilling efficacy by foliar treatment; L: redroot pigweed; details: treatment dosage 315 g/ha
# Method in brief: as §3
# wild oat [35] = assay: Test Example 3: weedkilling efficacy through soil treatment; G: wild oat; details: treatment dosage 315 g/ha
# Method in brief: as §1
# crabgrass [36] = assay: Test Example 3: weedkilling efficacy through soil treatment; D: crabgrass; details: treatment dosage 315 g/ha
# Method in brief: as §1
compound,measurement,setting,value
CC1=C(c2ccccc2)C(=O)N(C(C)(C)C(=O)Nc2cc(Br)ccn2)CO1 [B-2-30],e (wheat) effect on crop grade,wheat [1],0 (weed kill ratio 5% or less (practically no effect))
same,L (redroot pigweed) weedkilling efficacy grade,redroot pigweed [2],"3 (weed kill ratio 40% or more, less than 70%)"
same,a (transplanted rice) effect on crop grade,transplanted rice,"1 (weed kill ratio 5% or more, less than 20%)"
same,I (Italian ryegrass) weedkilling efficacy grade,Italian ryegrass [3],"4 (weed kill ratio 70% or more, less than 90%)"
same,B (bulrush) weedkilling efficacy grade,bulrush [4],"5 (weed kill ratio 90% or more, (practically complete withering))"
same,b (directly sown rice) effect on crop grade,directly sown rice [5],"5 (weed kill ratio 90% or more, (practically complete withering))"
same,O (catchweed) weedkilling efficacy grade,catchweed [6],"5 (weed kill ratio 90% or more, (practically complete withering))"
same,M (fig-leafed goosefoot) weedkilling efficacy grade,fig-leafed goosefoot [7],"5 (weed kill ratio 90% or more, (practically complete withering))"
same,A (barnyard grass) weedkilling efficacy grade,barnyard grass [8],"5 (weed kill ratio 90% or more, (practically complete withering))"
same,c (corn) effect on crop grade,corn [9],"1 (weed kill ratio 5% or more, less than 20%)"
same,f (beet) effect on crop grade,beet [10],"4 (weed kill ratio 70% or more, less than 90%)"
same,E (green foxtail) weedkilling efficacy grade,green foxtail [11],"5 (weed kill ratio 90% or more, (practically complete withering))"
same,K (Indian mallow) weedkilling efficacy grade,Indian mallow [12],"4 (weed kill ratio 70% or more, less than 90%)"
same,B (bulrush) weedkilling efficacy grade,bulrush [13],"5 (weed kill ratio 90% or more, (practically complete withering))"
same,H (black-grass) weedkilling efficacy grade,black-grass [14],"3 (weed kill ratio 40% or more, less than 70%)"
same,M (fig-leafed goosefoot) weedkilling efficacy grade,fig-leafed goosefoot [15],"4 (weed kill ratio 70% or more, less than 90%)"
same,C (oval-leafed pondweed) weedkilling efficacy grade,oval-leafed pondweed [16],"5 (weed kill ratio 90% or more, (practically complete withering))"
same,E (green foxtail) weedkilling efficacy grade,green foxtail [17],"5 (weed kill ratio 90% or more, (practically complete withering))"
same,I (Italian ryegrass) weedkilling efficacy grade,Italian ryegrass [18],"5 (weed kill ratio 90% or more, (practically complete withering))"
same,C (oval-leafed pondweed) weedkilling efficacy grade,oval-leafed pondweed [19],"3 (weed kill ratio 40% or more, less than 70%)"
same,P (birds-eye speedwell) weedkilling efficacy grade,birds-eye speedwell,"4 (weed kill ratio 70% or more, less than 90%)"
same,K (Indian mallow) weedkilling efficacy grade,Indian mallow [20],"3 (weed kill ratio 40% or more, less than 70%)"
same,N (chickweed) weedkilling efficacy grade,chickweed [21],"3 (weed kill ratio 40% or more, less than 70%)"
same,O (catchweed) weedkilling efficacy grade,catchweed [22],"4 (weed kill ratio 70% or more, less than 90%)"
same,f (beet) effect on crop grade,beet [23],"4 (weed kill ratio 70% or more, less than 90%)"
same,e (wheat) effect on crop grade,wheat [24],0 (weed kill ratio 5% or less (practically no effect))
same,d (soybean) effect on crop grade,soybean [25],"1 (weed kill ratio 5% or more, less than 20%)"
same,A (barnyard grass) weedkilling efficacy grade,barnyard grass [26],"5 (weed kill ratio 90% or more, (practically complete withering))"
same,N (chickweed) weedkilling efficacy grade,chickweed [27],"4 (weed kill ratio 70% or more, less than 90%)"
same,c (corn) effect on crop grade,corn [28],"1 (weed kill ratio 5% or more, less than 20%)"
same,b (directly sown rice) effect on crop grade,directly sown rice [29],"4 (weed kill ratio 70% or more, less than 90%)"
same,D (crabgrass) weedkilling efficacy grade,crabgrass [30],"5 (weed kill ratio 90% or more, (practically complete withering))"
same,H (black-grass) weedkilling efficacy grade,black-grass [31],"5 (weed kill ratio 90% or more, (practically complete withering))"
same,G (wild oat) weedkilling efficacy grade,wild oat [32],"3 (weed kill ratio 40% or more, less than 70%)"
same,d (soybean) effect on crop grade,soybean [33],"4 (weed kill ratio 70% or more, less than 90%)"
same,L (redroot pigweed) weedkilling efficacy grade,redroot pigweed [34],"4 (weed kill ratio 70% or more, less than 90%)"
same,G (wild oat) weedkilling efficacy grade,wild oat [35],"5 (weed kill ratio 90% or more, (practically complete withering))"
same,D (crabgrass) weedkilling efficacy grade,crabgrass [36],"5 (weed kill ratio 90% or more, (practically complete withering))"
